Assay results taken from patent US20250313535A1, “ALPHA 4 BETA 7 INTEGRIN MODULATORS AND USES THEREOF” (DICE MOLECULES SV, INC., priority 2022, published 2025).
Read-outs that look alike come from different tables or passages of the source.

Tests used:
α4β7 integrin = α4β7 integrin (Homo sapiens (Human), UniProt P13612+P26010); assay: Integrin Adhesion Assay: Protocol 1 (MAdCAM-coated plate, RPMI-8866 cells, CellTiter GLO readout); assay type: cell-based
Summary of the method: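 RPMI-8866 cells (2×10^6 per mL) added with compounds (1% DMSO) to MAdCAM-coated wells blocked in HEPES/NaCl buffer with 1 mM MnCl2, 0.1 mM CaCl2, 1% BSA; 1 h at 37° C, 5% CO2. After four washes, bound cells read by CellTiter GLO luminescence; % inhibition vs DMSO and control wells, 4-parameter fit.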

α4β1 integrin = α4β1 integrin (Homo sapiens (Human), UniProt P05556+P13612); assay: Integrin Adhesion Assay: Protocol 5 (VCAM-coated plate, RPMI-8866 cells with stable LOF mutation of the ITGB7 gene); assay type: cell-based
Summary of the method: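 RPMI-8866 B cells with CRISPR/Cas9 ITGB7 knockout (clonal, verified by flow cytometry) adhered to VCAM-coated wells for 1 h at 37° C in HEPES/NaCl buffer with 1 mM MnCl2, 0.1 mM CaCl2, 1% BSA, 1% DMSO. Bound cells quantified by CellTiter-Glo luminescence after washing; % inhibition versus DMSO and control, 4-parameter fit.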

[1] = RPMI-8866 cells with stable LOF mutation of the ITGB7 gene, read-out: Mean IC50 α4β1 KO^b
[2] = Protocol 5, RPMI-8866 cells with LOF mutation of ITGB7, VCAM, read-out: Mean IC50 α4β1 KO

Sequence of α4β7 integrin (P13612 34-1032): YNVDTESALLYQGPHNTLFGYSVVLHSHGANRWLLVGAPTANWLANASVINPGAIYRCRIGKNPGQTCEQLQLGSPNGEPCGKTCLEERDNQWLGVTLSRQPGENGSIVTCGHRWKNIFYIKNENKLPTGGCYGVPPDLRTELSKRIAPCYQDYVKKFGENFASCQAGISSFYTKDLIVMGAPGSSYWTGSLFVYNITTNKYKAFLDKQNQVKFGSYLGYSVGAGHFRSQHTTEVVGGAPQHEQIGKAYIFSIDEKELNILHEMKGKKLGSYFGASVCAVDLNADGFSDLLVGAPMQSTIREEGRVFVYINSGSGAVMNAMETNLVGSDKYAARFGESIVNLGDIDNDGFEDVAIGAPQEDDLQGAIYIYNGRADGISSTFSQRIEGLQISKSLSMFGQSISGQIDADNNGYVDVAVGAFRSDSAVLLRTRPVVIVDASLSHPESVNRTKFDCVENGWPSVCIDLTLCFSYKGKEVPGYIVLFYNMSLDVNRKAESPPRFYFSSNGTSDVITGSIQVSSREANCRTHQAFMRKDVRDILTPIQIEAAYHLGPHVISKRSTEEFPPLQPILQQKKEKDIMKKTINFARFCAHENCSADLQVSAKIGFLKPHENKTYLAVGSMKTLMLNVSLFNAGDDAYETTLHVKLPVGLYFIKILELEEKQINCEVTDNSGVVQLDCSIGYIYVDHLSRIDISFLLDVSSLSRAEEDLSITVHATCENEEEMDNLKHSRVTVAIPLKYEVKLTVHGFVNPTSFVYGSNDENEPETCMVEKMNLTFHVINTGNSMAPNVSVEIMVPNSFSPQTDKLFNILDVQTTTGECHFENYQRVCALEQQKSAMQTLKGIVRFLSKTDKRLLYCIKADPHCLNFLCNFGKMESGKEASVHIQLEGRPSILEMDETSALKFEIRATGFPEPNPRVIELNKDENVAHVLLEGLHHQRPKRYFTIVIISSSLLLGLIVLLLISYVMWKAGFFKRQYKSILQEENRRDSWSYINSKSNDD
Sequence of α4β7 integrin (P26010 20-798): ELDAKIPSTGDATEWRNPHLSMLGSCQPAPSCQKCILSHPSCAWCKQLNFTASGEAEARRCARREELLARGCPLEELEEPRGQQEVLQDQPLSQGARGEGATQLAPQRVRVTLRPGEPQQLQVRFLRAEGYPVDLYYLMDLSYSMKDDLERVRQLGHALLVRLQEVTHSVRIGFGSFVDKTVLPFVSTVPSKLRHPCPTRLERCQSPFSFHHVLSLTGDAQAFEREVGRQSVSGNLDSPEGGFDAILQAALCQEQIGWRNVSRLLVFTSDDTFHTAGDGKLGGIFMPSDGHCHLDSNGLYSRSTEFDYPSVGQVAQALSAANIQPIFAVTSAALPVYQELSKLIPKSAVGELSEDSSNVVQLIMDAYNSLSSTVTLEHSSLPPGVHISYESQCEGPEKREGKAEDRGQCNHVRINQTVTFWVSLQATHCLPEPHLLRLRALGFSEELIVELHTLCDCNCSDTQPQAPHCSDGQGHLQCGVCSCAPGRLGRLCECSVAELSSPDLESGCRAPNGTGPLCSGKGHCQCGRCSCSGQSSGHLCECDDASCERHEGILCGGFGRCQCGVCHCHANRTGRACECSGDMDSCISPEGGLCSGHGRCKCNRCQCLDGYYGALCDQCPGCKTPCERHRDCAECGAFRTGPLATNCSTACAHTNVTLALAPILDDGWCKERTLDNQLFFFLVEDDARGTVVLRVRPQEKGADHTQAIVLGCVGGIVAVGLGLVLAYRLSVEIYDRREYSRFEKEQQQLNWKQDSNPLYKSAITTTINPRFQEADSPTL
Sequence of α4β1 integrin (P13612 34-1032): as the sequence (P13612 34-1032) above
Sequence of α4β1 integrin (P05556 21-798): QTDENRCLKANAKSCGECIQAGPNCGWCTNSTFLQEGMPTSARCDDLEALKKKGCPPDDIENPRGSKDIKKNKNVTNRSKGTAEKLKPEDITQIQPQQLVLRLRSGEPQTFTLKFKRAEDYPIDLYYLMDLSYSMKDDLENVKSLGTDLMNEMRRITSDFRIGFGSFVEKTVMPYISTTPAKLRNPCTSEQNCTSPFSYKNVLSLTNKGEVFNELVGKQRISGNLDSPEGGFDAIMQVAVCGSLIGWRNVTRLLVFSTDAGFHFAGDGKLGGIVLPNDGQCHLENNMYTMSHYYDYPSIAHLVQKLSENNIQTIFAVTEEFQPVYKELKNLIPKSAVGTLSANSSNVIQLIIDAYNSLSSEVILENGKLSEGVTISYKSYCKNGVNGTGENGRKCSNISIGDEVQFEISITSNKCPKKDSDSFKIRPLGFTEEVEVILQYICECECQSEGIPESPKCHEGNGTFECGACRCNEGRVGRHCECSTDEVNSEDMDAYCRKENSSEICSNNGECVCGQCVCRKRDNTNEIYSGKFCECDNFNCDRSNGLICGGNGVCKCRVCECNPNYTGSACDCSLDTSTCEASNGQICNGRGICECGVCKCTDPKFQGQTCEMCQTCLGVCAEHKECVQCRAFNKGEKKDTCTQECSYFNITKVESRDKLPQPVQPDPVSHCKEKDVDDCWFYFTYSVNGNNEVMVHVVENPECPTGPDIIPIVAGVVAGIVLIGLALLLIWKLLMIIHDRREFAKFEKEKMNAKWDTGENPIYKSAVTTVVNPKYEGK

IC50 (α4β7 integrin) [nM]	IC50 (α4β1 integrin; [1]) [nM]	IC50 (α4β7 integrin; protocol not given) [nM]	IC50 (α4β1 integrin; [2]) [nM]	SMILES
100 to 1000	> 1000			Cn1c(=O)c(-c2cccc3c(C[C@H](NC(=O)c4c(F)cc(N(C5COC5)C5COC5)cc4F)C(=O)O)cccc23)c(C(F)(F)F)c2ccccc21 [Compound 397]
10 to 100	> 1000			CN1CCN(Cc2cccc(F)c2C(=O)N[C@@H](Cc2cccc3c(-c4c(C(F)(F)F)c5ccccc5n(C)c4=O)cccc23)C(=O)O)CC1 [Compound 353]
10 to 100	> 1000			Cn1ccc(C(F)(F)F)c(-c2cccc3c(C[C@H](NC(=O)c4c(F)cc(N5CCOC(CN6CCCC6)C5)cc4F)C(=O)O)cccc23)c1=O (some centres unmarked) [Compound 440]
10 to 100	> 1000			Cc1n[nH]c(C)c1-c1ccc(F)c(C(=O)N[C@@H](Cc2cccc3c(-c4c(C(F)(F)F)c5ccccc5n(C)c4=O)cccc23)C(=O)O)c1F [Compound 309]
100 to 1000	> 1000			Cc1[nH]c2ccccc2c1-c1cc(F)c(C(=O)N[C@@H](Cc2cccc3c(-c4c(C(F)(F)F)c5ccccc5n(C)c4=O)cccc23)C(=O)O)c(F)c1 [Compound 327]
> 1000	> 1000			Cn1c(=O)c(-c2cccc3c(C[C@H](NC(=O)c4c(F)cc(C(F)(F)F)cc4F)C(=O)O)cccc23)c(C(F)(F)F)c2ccccc21 [Compound 325]
10 to 100	> 1000			CN(C)c1ccc2c(c1)c(C(F)(F)F)c(-c1cccc3c(C[C@H](NC(=O)c4c(F)cc(N5CCOC[C@@H]5C(F)(F)F)cc4F)C(=O)O)cccc13)c(=O)n2C [Compound 302]
10 to 100	> 1000			CN(C)Cc1ccc2c(-c3cccc4c(C[C@H](NC(=O)[C@]5(C)CC[C@H](N6CCOC[C@@H]6C(F)(F)F)CC5)C(=O)O)cccc34)nccc2c1 [Compound 582]
< 10	> 1000			CN1CCN(Cc2cc(N3CCOC[C@@H]3C(F)(F)F)cc(F)c2C(=O)N[C@@H](Cc2cccc3c(-c4c(C(F)(F)F)c5ccccc5n(C)c4=O)cccc23)C(=O)O)CC1 [Compound 360]
10 to 100	> 1000			Cn1c(=O)c(-c2cccc3c(C[C@H](NC(=O)c4c(F)cc(N5CC(C)(C)OC(C)(C)C5)cc4F)C(=O)O)cccc23)c(C(F)(F)F)c2ccccc21 [Compound 331]
10 to 100	> 1000			CN1CCN(c2cc(F)c(C(=O)N[C@@H](Cc3cccc4c(-c5c(C(F)(F)F)c6ccccc6n(C)c5=O)cccc34)C(=O)O)c(F)c2)CC1 [Compound 350]
		< 10	100 to 1000	CN(C)CCc1ccc2c(c1)c(C(F)(F)F)c(-c1cccc3c(C[C@H](NC(=O)c4c(F)cc(N5CCOC[C@@H]5C(F)(F)F)cc4F)C(=O)O)cccc13)c(=O)n2C [Compound 708]
10 to 100	> 1000			O=C(N[C@@H](Cc1cccc2c(-c3cccc4ccncc34)cccc12)C(=O)O)c1c(F)cccc1CN1CCCC1 [Compound 356]
10 to 100	> 1000			Cn1c(C(F)(F)F)cc(C(F)(F)F)c(-c2cccc3c(C[C@H](NC(=O)[C@]4(C)CC[C@H](N5CCOC[C@@H]5C(F)(F)F)CC4)C(=O)O)cccc23)c1=O [Compound 408]
100 to 1000	> 1000			Cn1c(=O)c(-c2cccc3c(C[C@H](NC(=O)c4c(F)cc(C5CCC(F)(F)CC5)cc4F)C(=O)O)cccc23)c(C(F)(F)F)c2ccccc21 [Compound 381]
100 to 1000	> 1000			CO[C@H](C)c1cc(F)c(C(=O)N[C@@H](Cc2cccc3c(-c4c(C(F)(F)F)c5ccccc5n(C)c4=O)cccc23)C(=O)O)c(F)c1 [Compound 375]
10 to 100	> 1000			Cn1c(C(F)(F)F)cc(C(F)(F)F)c(-c2cccc3c(C[C@H](NC(=O)[C@]4(C)CC[C@@H](N5CCC(F)(F)CC5)CC4)C(=O)O)cccc23)c1=O (single isomer, unassigned) [Compound 405]

IC50 (α4β7 integrin) [nM]	IC50 (α4β1 integrin; [1]) [nM]	IC50 (α4β7 integrin; protocol not given) [nM]	IC50 (α4β1 integrin; [2]) [nM]	SMILES
10 to 100	> 1000			Cn1c(C(F)(F)F)cc(C(F)(F)F)c(-c2cccc3c(C[C@H](NC(=O)[C@]4(C)CC[C@@H](N5CCOC[C@@H]5C(F)(F)F)CC4)C(=O)O)cccc23)c1=O [Compound 407]
< 10	> 1000			CN(C)Cc1cc(-c2cccc3c(C[C@H](NC(=O)c4c(F)cc(N5CCOC[C@@H]5C(F)(F)F)cc4F)C(=O)O)cccc23)c2cnccc2c1 [Compound 445]
		< 10	100 to 1000	CN(C)CCc1ccc2c(c1)c(C(F)(F)F)c(-c1cccc3c(C[C@H](NC(=O)c4c(F)cccc4F)C(=O)O)cccc13)c(=O)n2C [Compound 705]
10 to 100	> 1000			Cc1n[nH]c(C)c1-c1cc(F)c(C(=O)N[C@@H](Cc2cccc3c(-c4c(C(F)(F)F)c5ccccc5n(C)c4=O)cccc23)C(=O)O)c(F)c1 [Compound 308]
< 10	> 1000			Cn1c(=O)c(-c2cccc3c(C[C@H](NC(=O)C4(C)CCN([C@@H]5CCOC5)CC4)C(=O)O)cccc23)c(C(F)(F)F)c2ccccc21 [Compound 414]
10 to 100	> 1000			Cn1c(=O)c(-c2cccc3c(C[C@H](NC(=O)c4c(F)cc(NC5COC5)cc4F)C(=O)O)cccc23)c(C(F)(F)F)c2ccccc21 [Compound 378]
100 to 1000	> 1000			COCCN(C)c1cc(F)c(C(=O)N[C@@H](Cc2cccc3c(-c4c(C(F)(F)F)c5ccccc5n(C)c4=O)cccc23)C(=O)O)c(F)c1 [Compound 384]
10 to 100	> 1000			Cn1c(=O)c(-c2cccc3c(C[C@H](NC(=O)c4c(F)ccc(-c5ccccn5)c4F)C(=O)O)cccc23)c(C(F)(F)F)c2ccccc21 [Compound 313]
< 10	> 1000			CN(C)Cc1ccc2c(-c3cccc4c(C[C@H](NC(=O)[C@]5(C)CC[C@@H](N6CCC(F)(F)CC6)CC5)C(=O)O)cccc34)nccc2c1 [Compound 585]
< 10	> 1000			Cn1c(=O)c(-c2cccc3c(C[C@H](NC(=O)c4c(F)cc(N5CCOC[C@@H]5C(F)(F)F)cc4CN4CCCC4)C(=O)O)cccc23)c(C(F)(F)F)c2ccccc21 [Compound 359]
10 to 100	> 1000			Cn1c(=O)c(-c2cccc3c(C[C@H](NC(=O)[C@]4(C)CC[C@@H](N5CCOC[C@@H]5C(F)(F)F)CC4)C(=O)O)cccc23)c(C(F)(F)F)c2ccccc21 [Compound 346]
10 to 100	> 1000			CN(C)Cc1cccc(F)c1C(=O)N[C@@H](Cc1cccc2c(-c3cccc4ccncc34)cccc12)C(=O)O [Compound 357]
10 to 100	> 1000			O=C(N[C@@H](Cc1cccc2c(-c3cccc4ccncc34)cccc12)C(=O)O)c1c(F)cccc1CN1CCC(F)(F)CC1 [Compound 358]
10 to 100	> 1000			CN(C)Cc1cccc2c(-c3cccc4c(C[C@H](NC(=O)C5(C)CCN(CC(F)(F)F)CC5)C(=O)O)cccc34)nccc12 [Compound 420]
10 to 100	100 to 1000			Cn1c(=O)c(-c2cccc3c(C[C@H](NC(=O)c4c(F)cc5cnn(CC(F)(F)F)c5c4F)C(=O)O)cccc23)c(C(F)(F)F)c2ccccc21 [Compound 322]
10 to 100	> 1000			Cn1c(=O)c(-c2cccc3c(C[C@H](NC(=O)c4c(F)cc(N(CCC(F)(F)F)C5COC5)cc4F)C(=O)O)cccc23)c(C(F)(F)F)c2ccccc21 [Compound 392]
< 10	> 1000			CN(C)Cc1cc(-c2cccc3c(C[C@H](NC(=O)c4c(F)cc(N5CCOC[C@@H]5C(F)(F)F)cc4CN4CCOCC4)C(=O)O)cccc23)c2cnccc2c1 [Compound 294]
